Patent EP2085394B1, “Metronidazole derivatives as antiparasitic agents” (University of Jordan, priority 2008, dated 2009)
In brackets after ≈: the same amount, converted by molar mass.

What was measured:
Assay type in all cases: cell-based
[1] = system: Leishmania donovani promastigotes; experiment: Antileishmanial activity, 96-well plates; details: for IC50: Leishmania donovani; for IC50 / IC100 Leishmania donovani: promastigotes, 72 h, 24°C; for lethal activity: Leishmania donovani promastigotes, result in words
Protocol: (§1) Entamoeba histolytica HK-9 strain (ATCC number 30015) was cultured in LYI-S-2 medium supplemented with antibiotics. Giardia intestinalis WB strain (ATCC number 30957) was grown in a modified YI-S medium with antibiotics. Both parasites were cultivated in 15-mL screw-capped borosilicate glass tubes containing 13 mL medium. The tubes were incubated on a 15° horizontal slant at (36-37) °C. Culture maintenance and subculturing was performed as described by Clark and Diamond. Entamoeba and Giardia were harvested from confluent cultures by chilling of the tubes on ice for 5-10 min to detach cells, followed by centrifugation at 800 x g for 5 min. Leishmania donovani and L. tropica promastigotes were cultured in Schneider's medium containing 20 % foetal calf serum and antibiotics at 24°C. Stationary phase promastigotes were harvested by centrifugation at 1000 x g for 10 min.
(§2) The antileishmanial activity of metronidazole-derivatives was tested in 96-well plates. Each of the meronidazole-derivatives and the reference drugs were dissolved in 10 µL of dimethyl sulfoxide (DMSO) and were completed with […] growth medium. The solutions were filter sterilized using 0.22 µm syringe filters. Then, 170 µL-two fold serial dilutions of each of the compounds and metronidazole starting at a concentration of 2000 µg/mL in culture medium were prepared in flat bottomed 96-well microtiter plates of 400-µL-well-capacity. A suspension containing 10^5 of Leishmania promastigotes per milliliter culture medium was prepared and 170-µL portions of the suspension were added to the appropriate wells. Plates were covered with the microtiter plate lids and incubated at 24°C. The number of parasites in each well was determined after 72 h by counting in a hemacytometer at the 10X objective lens. Leishmania viability was determined by observing promastigote motility. Each compound was assayed in duplicate in each of three independent experiments. In each assay two sets of controls were performed, one without any test compound and another with amphotericin B as a standard antileishmanial drug.
(§3) The minimal inhibitory concentration (MIC) defined as the minimum concentration of a compound at which no parasitic growth was observed. The 50% inhibitory concentration (IC50) was the concentration of compounds which cut the number of parasites to half that in the negative control (growth medium + DMSO + parasites).

[2] = system: Leishmania tropica promastigotes; experiment: Antileishmanial activity, 96-well plates; details: for IC50: Leishmania tropica; for IC50 / IC100 Leishmania tropica: promastigotes, 72 h, 24°C; for lethal activity: Leishmania tropica promastigotes, result in words
Protocol: as §1, §2, §3

[3] = system: Giardia intestinalis WB strain; experiment: Antigiardial activity, tube method; details: for IC100 Giardia intestinalis / IC50: 72 hours, (36-37) °C, parasite count; for IC50: Giardia duodenalis; for lethal activity / IC50 times less than that of metronidazole: Giardia intestinalis; for lethal activity: result in words; for IC50 times less than that of metronidazole: relative to the standard drug metronidazole
Protocol: as §1
(§4) The antiamoebic and antigiardial activities of metronidazole-derivatives were tested using the tube method according to published procedures with some modifications. Eight milligrams of a test compound or metronidazole were dissolved in 10 µL of dimethyl sulfoxide (DMSO) and completed with 10 mL growth medium. The solutions were filter sterilized using 0.22 µm syringe filters and the appropriate volumes of the solutions were taken to prepare the concentrations of each compound in 15-mL screw-capped borosilicate glass tubes. For each compound, concentrations of 60, 30, 15, 7.5, 3.5, 1.7, 0.8, 0.4, 0.2, 0.1, 0.05, 0.02, 0.01, 0.005 µg/mL medium were prepared in a final volume of 15 mL to exclude air from the tube. For more accurate determination of the biologically active concentration of the compound, other concentrations around the above mentioned ones were also tested. Each tube was inoculated with 20,000 cells of the parasite under testing (Entamoeba or Giardia). Each compound was assayed in duplicate in each of three independent experiments. In each assay, two sets of controls were performed, one without any test compound and another with metronidazole. The caps of Entamoeba and Giardia tubes were tightly screwed and wrapped with parafilm. The tubes were incubated on a 15° horizontal slant at (36-37) °C for 72 hours.
(§5) The number of parasites in the tubes was determined as described in the literature by counting in a hemacytometer at the 10X objective. For counting of Entamoeba and Giradia, the tubes were placed on ice to permit detachment of the parasite and centrifuged at 1000 x g for 10 min. The supernatant was discarded and 1 mL fresh medium was added to each tube. Then, 25 µL of the parasite suspension in each tube was mixed with 100 µL of 0.4 % trypan blue in phosphate buffered saline (PBS) to distinguish viable from dead parasites.
as §3

[4] = system: Entamoeba histolytica HK-9 strain; experiment: Antiamoebic activity, tube method; details: for IC100 Entamoeba histolytica / IC50: 72 hours, (36-37) °C, parasite count; for lethal activity / IC50 / IC50 times less than that of metronidazole: Entamoeba histolytica; for lethal activity: result in words; for IC50 times less than that of metronidazole: relative to the standard drug metronidazole
Protocol: as §1, §4, §5, §3

[5] = system: Hep-2 cells; experiment: Cytotoxicity assay, trypan blue exclusion; details: compared with the standard drug
Protocol: (§6) The cytotoxicity of the metronidazole-derivatives and the reference drugs was investigated on Hep-2 and Vero cells using the standard cytotoxicity assay and the trypan blue exclusion method, as described in the literature, with modifications. A cell suspension (10^5 cells/mL RPMI medium containing 10% inactivated foetal calf serum) was prepared from confluent cultures and 100 µL portions of the suspension were added to the wells of 96-well plates. The cells were incubated for 24 h at 37 °C and 5 % CO2 and the medium in each well was then replaced with fresh 150 µL medium. Solutions of the test compounds or reference drugs were prepared and sterilized as described above (Antiprotozolal activity). Then, 150 µL-two fold serial dilutions of each of the compounds and the reference drugs starting at a concentration of 2000 µg/mL in culture medium were prepared in the plates. After 48 hour incubation at 37 °C and 5 % CO2, the number of cells in each well was determined as follows: The medium in each well was gently replaced with 100 µL of 0.25% (w/v) trypsin-0.53 mM EDTA solution and the plates were incubated for 5 minute at 37 °C to detach the cells followed by the addition of 200 µL of trypan blue solution were added to each well and the plates were, then, placed on ice. The cells were counted in a hemacytometer at the 10X objective. Each compound or reference drug was assayed in duplicate in each of three independent experiments. In each assay the negative controls (without any test compound or reference drug) were included in duplicates. IC0 was the concentration of compound at which the number of cells in the well was more than or equal to that of the negative control (IC0 = no inhibition of cell growth). Table 1. Antiamoebic and antigiardial activities of compounds IA, IIA, and IIIA

[6] = system: Vero cells; experiment: Cytotoxicity assay, trypan blue exclusion; details: compared with the standard drug
Protocol: as §6

Structure (SMILES) | IC50 [1] [µg/mL] | IC50 [2] [µg/mL] | IC50 [3] [µg/mL] | IC50 times less than that of metronidazole [3] [times] | IC50 [4] [µg/mL] | IC50 times less than that of metronidazole [4] [times] | IC100 Leishmania donovani [1] [µg/mL] | IC100 Leishmania tropica [2] [µg/mL] | IC100 Giardia intestinalis [3] [µg/mL] | lethal activity [3] | IC100 Entamoeba histolytica [4] [µg/mL] | lethal activity [4] | lethal activity [1] | lethal activity [2] | cytotoxicity [5] | cytotoxicity [6]
C[C@@H]1[C@H](O)[C@@H](C)/C=C/C=C/C=C/C=C/C=C/C=C/C=C/[C@H](O[C@@H]2O[C@H](C)[C@@H](O)[C@H](N)[C@@H]2O)C[C@@H]2O[C@](O)(C[C@@H](O)C[C@@H](O)[C@H](O)CC[C@@H](O)C[C@@H](O)CC(=O)O[C@H]1C)C[C@H](O)[C@H]2C(=O)O [Amphotericin B, reference compound] | 0.08 (≈ 0.0866 µM) | 0.08 (≈ 0.0866 µM) | – | – | – | – | 2.5 | 2.5 | – | – | – | – | – | – | – | –
Cc1ncc([N+](=O)[O-])n1CCNS(=O)(=O)c1sc(Cl)cc1Br [IIA] | 300 (≈ 698 µM) | 150 (≈ 349 µM) | 0.04 (≈ 0.0931 µM) | 20 | 0.04 (≈ 0.0931 µM) | 20 | 2000 | 2000 | 0.3 | potent lethal activity | 0.3 | potent lethal activity | lethal activity | lethal activity | equivalent in cytotoxicity to the standard drug | equivalent in cytotoxicity to the standard drug
Cc1ncc([N+](=O)[O-])n1CCN1CCN(CCO)CC1 [IIIA] | 62.5 (≈ 221 µM) | 62.5 (≈ 221 µM) | 0.04 (≈ 0.141 µM) | 20 | 0.04 (≈ 0.141 µM) | 20 | 250 | 250 | 0.8 | potent lethal activity | 0.8 | potent lethal activity | lethal activity | lethal activity | equivalent in cytotoxicity to the standard drug | equivalent in cytotoxicity to the standard drug

Continued, in another order:

IC50 [1] [µg/mL] | IC50 [2] [µg/mL] | IC50 [3] [µg/mL] | IC50 times less than that of metronidazole [3] [times] | IC50 [4] [µg/mL] | IC50 times less than that of metronidazole [4] [times] | Structure (SMILES) | IC100 Leishmania donovani [1] [µg/mL] | IC100 Leishmania tropica [2] [µg/mL] | IC100 Giardia intestinalis [3] [µg/mL] | lethal activity [3] | IC100 Entamoeba histolytica [4] [µg/mL] | lethal activity [4] | lethal activity [1] | lethal activity [2] | cytotoxicity [5] | cytotoxicity [6]
300 (≈ 1090 µM) | 150 (≈ 545 µM) | 0.01 (≈ 0.0363 µM) | 80 | 0.01 (≈ 0.0363 µM) | 80 | Cc1ncc([N+](=O)[O-])n1CCOc1ccc(C=O)cc1 [Compound IA, 4-[2-(2-methyl-5-nitro-1H-imidazol-1-yl)ethoxy]benzaldehyde] | 2000 | 2000 | 0.14 | potent lethal activity | 0.14 | potent lethal activity | lethal activity | lethal activity | equivalent in cytotoxicity to the standard drug | equivalent in cytotoxicity to the standard drug
2000 (≈ 11700 µM) | 2000 (≈ 11700 µM) | 0.8 (≈ 4.67 µM) | – | 0.8 (≈ 4.67 µM) | – | Cc1ncc([N+](=O)[O-])n1CCO [Metronidazole, 2-(2-methyl-5-nitro-1H-imidazol-1-yl) ethanol] | – | – | 3.2 | – | 3.2 | – | – | – | – | –
